According to ChEMBL document CHEMBL1201862, “PubChem BioAssay data set” (2004):
Active and inactive are the calls of the source.

Columns and labels:
[1] = target: Keap1/Nrf2 (Homo sapiens, UniProt Q14145); test: Keap1-Nrf2 protein-protein interaction inhibitors, dose response, biochemical, fluorescence polarization, cherry-picked samples (AID 588683)
[2] = target: T1, Mannose-6-phosphate isomerase (Homo sapiens, UniProt P34949); test: inhibitors of human PMI, primary screen, biochemical, fluorescence intensity, coupled assay (AID 1209)
T1 sequence (P34949 whole entry): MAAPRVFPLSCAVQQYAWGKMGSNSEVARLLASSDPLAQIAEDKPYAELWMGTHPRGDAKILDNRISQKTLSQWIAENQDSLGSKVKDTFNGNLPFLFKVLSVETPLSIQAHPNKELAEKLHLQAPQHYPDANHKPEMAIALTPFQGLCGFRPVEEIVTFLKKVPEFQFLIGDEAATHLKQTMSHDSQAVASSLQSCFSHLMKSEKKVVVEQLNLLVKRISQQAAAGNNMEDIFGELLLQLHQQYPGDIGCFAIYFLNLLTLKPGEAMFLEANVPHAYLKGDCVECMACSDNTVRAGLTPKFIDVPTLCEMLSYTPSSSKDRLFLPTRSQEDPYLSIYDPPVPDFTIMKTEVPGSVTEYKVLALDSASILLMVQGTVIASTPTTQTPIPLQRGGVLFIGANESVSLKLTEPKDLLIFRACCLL

[3] = target: T2, Hexokinase HKDC1 (Homo sapiens, UniProt Q2TB90); test: HKDC1 hexokinase inhibitors, dose response, biochemical, W721R variant (AID 504729); type: functional
T2 sequence (Q2TB90 whole entry): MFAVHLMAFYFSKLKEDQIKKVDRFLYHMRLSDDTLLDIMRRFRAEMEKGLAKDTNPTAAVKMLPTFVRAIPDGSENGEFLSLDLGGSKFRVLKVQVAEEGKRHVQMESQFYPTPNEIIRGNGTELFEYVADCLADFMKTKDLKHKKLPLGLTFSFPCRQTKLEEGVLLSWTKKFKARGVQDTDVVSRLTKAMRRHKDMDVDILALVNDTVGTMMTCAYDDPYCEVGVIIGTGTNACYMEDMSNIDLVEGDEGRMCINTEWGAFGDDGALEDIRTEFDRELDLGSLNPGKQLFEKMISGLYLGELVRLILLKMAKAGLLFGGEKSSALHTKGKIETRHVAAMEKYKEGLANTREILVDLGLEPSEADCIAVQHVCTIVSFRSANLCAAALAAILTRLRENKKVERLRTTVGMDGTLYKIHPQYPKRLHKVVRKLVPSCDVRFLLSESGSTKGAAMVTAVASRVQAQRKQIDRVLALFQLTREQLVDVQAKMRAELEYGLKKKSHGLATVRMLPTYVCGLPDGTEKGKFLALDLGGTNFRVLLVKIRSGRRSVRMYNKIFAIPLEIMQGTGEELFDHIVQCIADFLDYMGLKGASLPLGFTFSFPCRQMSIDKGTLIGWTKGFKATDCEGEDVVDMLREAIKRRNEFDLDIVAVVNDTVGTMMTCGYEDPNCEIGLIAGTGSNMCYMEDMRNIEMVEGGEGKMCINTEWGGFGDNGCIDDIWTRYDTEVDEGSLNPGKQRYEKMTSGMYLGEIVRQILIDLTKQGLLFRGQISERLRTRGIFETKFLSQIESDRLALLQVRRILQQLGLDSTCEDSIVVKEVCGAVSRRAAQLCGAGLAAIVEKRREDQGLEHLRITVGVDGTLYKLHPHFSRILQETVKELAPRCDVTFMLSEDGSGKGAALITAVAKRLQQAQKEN

[4] = target: SUMO-activating enzyme (Homo sapiens, UniProt Q9UBT2); test: inhibitors of in vitro SUMOylation cascade, primary screen, biochemical, HTRF, uHTS (AID 2006); type: protein-complex assay
[5] = target: Peroxisome proliferator-activated receptor gamma/Nuclear receptor corepressor 2 (Homo sapiens, UniProt P37231+Q9Y618); type: functional
[6] = target: Perilipin-1/ABHD5 (Homo sapiens, UniProt O60240+Q8WTS1); test: Luminescence-based biochemical high throughput dose response assay for inhibitors of the interaction of the lipase co-activator protein, abhydrolase domain containing 5 (ABHD5) with perilipin-1 (PLIN1) (2K validation set). [Related pubchem assays (depositor defined):AID493027, AID493057]
[7] = off-target signal loss in HeLa-CEM21 co-culture – HeLa F-luc CTL cells, cherry-picked, counter-screen for HIV-1 Env fusion inhibitor project, dose response (AID 652040); type: functional, cell-based;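 further: potency for signal decrease marking cytotoxic or nonspecific inhibition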
[8] = inhibitors of HIV Env-driven cell fusion, dose response, cherry-pick (AID 652057); type: functional, cell-based
[9] = target: Protein-tyrosine kinase 2-beta (Homo sapiens, UniProt Q14289);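 further: potency of inhibitors of PYK2 kinase phosphorylation of poly-GT substrate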
[10] = target: T3, Sentrin-specific protease 8 (Homo sapiens, UniProt Q96LD8); type: functional
T3 sequence (Q96LD8 whole entry): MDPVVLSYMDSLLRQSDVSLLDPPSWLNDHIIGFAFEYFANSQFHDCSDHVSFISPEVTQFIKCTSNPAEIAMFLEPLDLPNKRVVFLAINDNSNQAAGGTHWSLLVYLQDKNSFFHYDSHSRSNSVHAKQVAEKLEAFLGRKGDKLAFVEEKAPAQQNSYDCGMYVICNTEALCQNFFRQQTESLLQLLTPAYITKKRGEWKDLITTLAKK

[11] = target: T3, Sentrin-specific protease 8; type: functional; remark: listed apart in the source
[12] = target: Heat shock protein HSP 90-alpha (Homo sapiens, UniProt P07900); type: functional, organism-based
[13] = target: Beta Lactamase (Pseudomonas aeruginosa, UniProt Q932Y6); test: beta-lactamase reporter inhibitor potency, dose response, artefact control for TLR9-MyD88 binding inhibitor project, BLA reporter cells, FRET fluorescence (AID 588341); type: cell-based;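 further: cell based assay in CHO-K1 cells stably expressing beta-lactamase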
[14] = target: Delta-type opioid receptor (Homo sapiens, UniProt P41143); test: HTS Image-Based Screen for Agonists of the DOR Receptor. [Related pubchem assays (depositor defined):AID1777, AID1786, AID2133]; type: functional
[15] = target: T4, Kappa-type opioid receptor (Homo sapiens, UniProt P41145); type: functional
[16] = target: Paired box protein Pax-8 (Homo sapiens, UniProt Q06710); test: inhibitors of PAX8-driven TPO luciferase reporter, dose response, RMG-I cells, cherry-pick (AID 687027); type: functional, cell-based;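 further: luciferase reporter driven by Pax8 target thyroperoxidase promoter measured by SteadyGlo luminescence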
[17] = test system: CHO; test: cytotoxicity in TLR9-MyD88 CHO cells, dose response, cytotoxicity control for TLR9-MyD88 binding inhibitor project, cell-based, luminescence (AID 588339); type: functional, hamster; conditions: Cricetulus griseus;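 further: CHO cells stably coexpressing TLR9 and MyD88 fusions from primary screen; compound exposure lasted 48 hours before viability readout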
[18] = target: T4, Kappa-type opioid receptor; type: functional; remark: listed apart in the source

T4 sequence (P41145 whole entry): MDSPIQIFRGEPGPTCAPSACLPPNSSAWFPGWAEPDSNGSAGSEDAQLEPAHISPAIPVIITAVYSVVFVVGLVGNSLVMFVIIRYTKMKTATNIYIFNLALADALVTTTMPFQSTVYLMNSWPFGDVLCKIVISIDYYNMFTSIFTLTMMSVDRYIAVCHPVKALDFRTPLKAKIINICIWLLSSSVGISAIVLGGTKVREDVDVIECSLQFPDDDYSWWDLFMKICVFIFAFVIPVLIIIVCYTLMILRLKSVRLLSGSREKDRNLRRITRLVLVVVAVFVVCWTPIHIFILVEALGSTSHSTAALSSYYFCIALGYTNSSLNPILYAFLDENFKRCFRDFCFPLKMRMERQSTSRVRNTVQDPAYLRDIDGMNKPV
Keap1/Nrf2, sequence (Q16236 whole entry): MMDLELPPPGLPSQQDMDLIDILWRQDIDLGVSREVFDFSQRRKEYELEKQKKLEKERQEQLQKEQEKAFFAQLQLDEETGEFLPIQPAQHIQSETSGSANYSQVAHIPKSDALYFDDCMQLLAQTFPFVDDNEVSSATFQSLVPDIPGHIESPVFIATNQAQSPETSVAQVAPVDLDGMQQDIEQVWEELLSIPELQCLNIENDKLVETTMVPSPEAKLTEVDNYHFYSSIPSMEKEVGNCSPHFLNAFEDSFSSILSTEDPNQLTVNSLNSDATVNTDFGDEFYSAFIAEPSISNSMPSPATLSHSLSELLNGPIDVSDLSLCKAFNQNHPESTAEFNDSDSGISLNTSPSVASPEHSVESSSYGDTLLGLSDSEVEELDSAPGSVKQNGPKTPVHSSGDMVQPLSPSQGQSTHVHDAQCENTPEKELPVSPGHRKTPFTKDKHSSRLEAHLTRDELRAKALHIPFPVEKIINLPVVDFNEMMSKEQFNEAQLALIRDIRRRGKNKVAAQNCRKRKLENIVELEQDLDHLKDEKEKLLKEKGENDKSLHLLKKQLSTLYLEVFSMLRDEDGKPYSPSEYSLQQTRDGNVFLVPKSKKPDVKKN
Keap1/Nrf2, sequence (Q14145 whole entry): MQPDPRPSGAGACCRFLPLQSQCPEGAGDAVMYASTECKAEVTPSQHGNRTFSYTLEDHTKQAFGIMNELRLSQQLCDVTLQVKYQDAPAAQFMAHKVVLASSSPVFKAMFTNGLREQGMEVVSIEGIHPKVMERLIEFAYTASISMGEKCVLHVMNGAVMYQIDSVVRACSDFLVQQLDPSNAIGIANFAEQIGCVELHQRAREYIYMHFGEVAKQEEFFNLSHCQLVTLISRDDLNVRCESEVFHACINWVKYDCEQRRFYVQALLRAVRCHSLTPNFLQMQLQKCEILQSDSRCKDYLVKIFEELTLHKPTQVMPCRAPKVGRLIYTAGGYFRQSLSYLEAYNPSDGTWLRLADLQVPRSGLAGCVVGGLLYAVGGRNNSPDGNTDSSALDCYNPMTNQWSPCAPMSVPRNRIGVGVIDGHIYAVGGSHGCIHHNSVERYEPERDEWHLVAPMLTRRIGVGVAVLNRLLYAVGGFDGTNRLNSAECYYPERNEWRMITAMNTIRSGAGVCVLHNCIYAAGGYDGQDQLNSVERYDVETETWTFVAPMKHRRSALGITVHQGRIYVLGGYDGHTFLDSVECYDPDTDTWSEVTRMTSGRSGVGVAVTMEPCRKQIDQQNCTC
Protein-tyrosine kinase 2-beta, sequence (Q14289 whole entry): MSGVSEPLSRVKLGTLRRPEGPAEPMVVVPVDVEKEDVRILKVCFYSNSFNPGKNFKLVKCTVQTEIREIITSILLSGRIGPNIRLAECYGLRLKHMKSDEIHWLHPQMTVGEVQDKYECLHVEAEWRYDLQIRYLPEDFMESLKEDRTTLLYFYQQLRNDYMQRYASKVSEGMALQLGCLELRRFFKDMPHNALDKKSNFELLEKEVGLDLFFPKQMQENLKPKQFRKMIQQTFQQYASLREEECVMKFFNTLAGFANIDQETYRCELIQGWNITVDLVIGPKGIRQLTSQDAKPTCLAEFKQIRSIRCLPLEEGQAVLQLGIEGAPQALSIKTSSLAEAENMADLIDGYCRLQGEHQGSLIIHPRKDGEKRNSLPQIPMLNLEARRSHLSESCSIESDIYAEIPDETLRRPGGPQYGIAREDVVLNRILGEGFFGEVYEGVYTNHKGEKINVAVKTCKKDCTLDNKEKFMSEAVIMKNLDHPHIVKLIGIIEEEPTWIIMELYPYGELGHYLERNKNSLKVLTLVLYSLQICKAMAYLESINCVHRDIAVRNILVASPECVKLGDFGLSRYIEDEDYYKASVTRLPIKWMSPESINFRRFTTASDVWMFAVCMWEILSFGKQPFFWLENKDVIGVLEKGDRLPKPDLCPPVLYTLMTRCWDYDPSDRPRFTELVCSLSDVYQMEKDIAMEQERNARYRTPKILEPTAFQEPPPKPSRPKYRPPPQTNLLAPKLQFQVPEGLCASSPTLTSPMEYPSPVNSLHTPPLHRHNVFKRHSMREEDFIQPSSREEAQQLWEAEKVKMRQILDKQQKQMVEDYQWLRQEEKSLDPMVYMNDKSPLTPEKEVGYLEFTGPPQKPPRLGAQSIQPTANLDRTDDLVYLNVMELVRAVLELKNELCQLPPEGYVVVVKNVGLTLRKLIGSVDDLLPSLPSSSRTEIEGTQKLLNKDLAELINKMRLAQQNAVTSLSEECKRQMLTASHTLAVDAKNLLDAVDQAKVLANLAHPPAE
Paired box protein Pax-8, sequence (Q06710 whole entry, the tested form may be a part): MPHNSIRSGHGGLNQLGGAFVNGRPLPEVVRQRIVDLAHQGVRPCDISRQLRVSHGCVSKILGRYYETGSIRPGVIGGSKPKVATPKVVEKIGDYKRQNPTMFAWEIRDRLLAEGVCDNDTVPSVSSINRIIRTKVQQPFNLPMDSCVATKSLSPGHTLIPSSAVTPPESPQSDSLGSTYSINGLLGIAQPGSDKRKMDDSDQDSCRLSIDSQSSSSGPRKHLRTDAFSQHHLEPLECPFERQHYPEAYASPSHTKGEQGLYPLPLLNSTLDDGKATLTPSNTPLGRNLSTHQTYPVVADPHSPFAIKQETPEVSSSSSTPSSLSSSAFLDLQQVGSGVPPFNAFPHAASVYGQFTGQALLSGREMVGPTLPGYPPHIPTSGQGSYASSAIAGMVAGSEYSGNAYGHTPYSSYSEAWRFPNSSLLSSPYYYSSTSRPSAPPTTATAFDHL
Beta Lactamase, sequence (Q932Y6 whole entry): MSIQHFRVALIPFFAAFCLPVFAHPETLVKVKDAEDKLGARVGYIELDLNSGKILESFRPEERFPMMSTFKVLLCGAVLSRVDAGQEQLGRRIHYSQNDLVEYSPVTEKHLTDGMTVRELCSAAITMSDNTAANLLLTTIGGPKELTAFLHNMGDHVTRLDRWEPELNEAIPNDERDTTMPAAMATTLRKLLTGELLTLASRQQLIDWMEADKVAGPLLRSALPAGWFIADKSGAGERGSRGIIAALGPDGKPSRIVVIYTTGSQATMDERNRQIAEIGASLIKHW
Perilipin-1/ABHD5, sequence (Q8WTS1 whole entry, the tested form may be a part): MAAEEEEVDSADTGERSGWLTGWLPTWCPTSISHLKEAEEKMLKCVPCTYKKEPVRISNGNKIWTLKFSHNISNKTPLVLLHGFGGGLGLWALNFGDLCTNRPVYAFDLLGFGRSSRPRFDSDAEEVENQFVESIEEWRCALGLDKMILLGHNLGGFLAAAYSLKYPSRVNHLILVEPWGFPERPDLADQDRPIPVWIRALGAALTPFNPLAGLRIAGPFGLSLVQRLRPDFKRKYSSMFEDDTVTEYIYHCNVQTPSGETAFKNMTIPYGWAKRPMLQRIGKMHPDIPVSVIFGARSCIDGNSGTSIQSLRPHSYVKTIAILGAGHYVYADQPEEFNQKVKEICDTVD
Perilipin-1/ABHD5, sequence (O60240 whole entry, the tested form may be a part): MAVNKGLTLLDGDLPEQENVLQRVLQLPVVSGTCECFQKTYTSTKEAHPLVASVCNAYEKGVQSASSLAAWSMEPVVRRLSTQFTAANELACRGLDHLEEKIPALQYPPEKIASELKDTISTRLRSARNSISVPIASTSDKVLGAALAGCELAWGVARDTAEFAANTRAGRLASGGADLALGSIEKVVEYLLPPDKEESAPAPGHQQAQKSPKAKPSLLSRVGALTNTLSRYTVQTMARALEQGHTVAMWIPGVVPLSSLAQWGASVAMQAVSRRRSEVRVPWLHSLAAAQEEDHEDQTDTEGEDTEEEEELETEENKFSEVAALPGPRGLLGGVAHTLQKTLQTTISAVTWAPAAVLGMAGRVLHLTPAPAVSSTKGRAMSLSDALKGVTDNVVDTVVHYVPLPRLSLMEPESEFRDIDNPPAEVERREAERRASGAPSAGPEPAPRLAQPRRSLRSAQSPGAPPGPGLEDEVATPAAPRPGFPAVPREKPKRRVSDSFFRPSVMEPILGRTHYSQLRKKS
Delta-type opioid receptor, sequence (P41143 whole entry): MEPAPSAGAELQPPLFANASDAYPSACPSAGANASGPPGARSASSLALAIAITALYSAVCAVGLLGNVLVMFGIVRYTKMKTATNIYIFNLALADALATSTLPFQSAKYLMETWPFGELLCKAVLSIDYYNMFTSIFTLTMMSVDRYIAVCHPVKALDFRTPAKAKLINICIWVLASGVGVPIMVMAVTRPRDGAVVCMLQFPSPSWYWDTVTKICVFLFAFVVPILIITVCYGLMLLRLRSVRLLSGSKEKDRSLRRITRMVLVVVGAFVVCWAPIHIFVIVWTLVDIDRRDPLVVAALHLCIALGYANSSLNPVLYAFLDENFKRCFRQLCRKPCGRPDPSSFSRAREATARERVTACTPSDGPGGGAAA

## COCCCNC(=O)c1ccc2c3c(onc13)-c1ccccc1C2=O
[1]
  AC50: 1.73 µM (active)

## CCOC(=O)C1=C(c2ccc(OC)cc2)C(=O)c2ccccc2C1=O
[2]
  IC50: 42.4 µM (active)
[3]
  IC50: 2.32 µM (active)

## CCCCn1c(NC(=O)c2ccccc2Cl)c(C#N)c2nc3ccccc3nc21
[4]
  IC50: 2.82 µM (active)

## O=C1C(=O)c2ccccc2-c2ccccc21 [9,10-PHENANTHRENEQUINONE]
[5]
  IC50: 1.84 µM (active)
[6]
  IC50: 12.3 µM (inactive)
[7]
  AC50: 3.04 µM (active)
[8]
  AC50: 4.53 µM (active)
[9]
  IC50: > 69.5 µM (not active)

## O=C1c2cc(F)ccc2-n2c1nc1ccccc1c2=O
[10]
  IC50: 985 nM (active)
[11]
  IC50: 962 nM (active)
[12]
  AC50: 3.73 µM (active)

## CCC(=O)OCCNc1cc(Sc2nccn2C)c2nonc2c1[N+](=O)[O-]
[13]
  IC50: 8.31 µM (active)
[14]
  EC50: > 32 µM (inactive)
[15]
  IC50: 4.05 µM (active)
[16]
  AC50: 7.53 µM (active)
[17]
  IC50: 2.38 µM (active)
[18]
  IC50: 22.7 µM
